# Measured values as given in US20220153745A1, “DISUBSTITUTED BENZOTHIENYL-PYRROLOTRIAZINES AND THEIR USE AS FGFR KINASE INHIBITORS” (Bayer Intellectual Property GmbH, priority 2011, published 2022).
# Counter-ions that a name gives are not always drawn.
# Biological target: T1, mTOR (Homo sapiens, UniProt P42345)
# T1 construct: human mTOR amino acids from 1360 to 2549; purchased Invitrogen 4753; host or cells: insect cells
# Assay: mTOR kinase assay (TR-FRET, for comparative purposes)
# Type: biochemical
# Conditions: mean inhibition at 1 μM test compound, 40 μM ATP
# T1 sequence (P42345 1360-2549): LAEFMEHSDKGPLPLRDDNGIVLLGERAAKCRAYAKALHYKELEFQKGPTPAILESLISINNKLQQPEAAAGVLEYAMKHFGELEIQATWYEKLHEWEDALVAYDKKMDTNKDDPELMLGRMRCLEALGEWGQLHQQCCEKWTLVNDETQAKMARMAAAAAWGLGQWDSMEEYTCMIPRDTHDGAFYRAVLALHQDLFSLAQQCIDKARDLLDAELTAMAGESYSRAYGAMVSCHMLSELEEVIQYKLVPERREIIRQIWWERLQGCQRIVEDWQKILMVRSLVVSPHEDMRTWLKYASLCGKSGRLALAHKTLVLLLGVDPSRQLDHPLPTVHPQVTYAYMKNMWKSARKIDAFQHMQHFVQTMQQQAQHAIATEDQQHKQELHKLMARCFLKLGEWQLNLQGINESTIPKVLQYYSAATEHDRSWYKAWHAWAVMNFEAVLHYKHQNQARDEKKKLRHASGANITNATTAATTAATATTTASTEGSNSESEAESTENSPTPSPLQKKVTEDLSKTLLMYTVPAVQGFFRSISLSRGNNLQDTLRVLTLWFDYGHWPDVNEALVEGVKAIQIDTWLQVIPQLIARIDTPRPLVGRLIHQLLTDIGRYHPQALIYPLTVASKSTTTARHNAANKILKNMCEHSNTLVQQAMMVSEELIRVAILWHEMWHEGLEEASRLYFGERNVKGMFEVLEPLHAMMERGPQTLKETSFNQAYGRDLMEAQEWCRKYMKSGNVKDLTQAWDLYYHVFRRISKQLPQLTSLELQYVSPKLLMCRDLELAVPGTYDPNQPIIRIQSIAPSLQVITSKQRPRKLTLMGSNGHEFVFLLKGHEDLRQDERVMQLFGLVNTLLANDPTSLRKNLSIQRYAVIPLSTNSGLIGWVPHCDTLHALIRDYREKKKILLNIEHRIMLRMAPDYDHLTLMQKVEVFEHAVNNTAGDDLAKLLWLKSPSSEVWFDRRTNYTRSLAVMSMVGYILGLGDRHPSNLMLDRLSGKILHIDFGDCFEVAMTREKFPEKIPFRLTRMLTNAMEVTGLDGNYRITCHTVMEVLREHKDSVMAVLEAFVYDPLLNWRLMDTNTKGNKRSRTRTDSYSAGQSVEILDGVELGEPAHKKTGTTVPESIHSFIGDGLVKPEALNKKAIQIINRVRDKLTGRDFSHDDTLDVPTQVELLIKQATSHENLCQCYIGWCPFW
row,SMILES,mTOR % inhibition @ 1 μM [%]
1,"COCc1c(-c2cc3cc(C)cc(OC)c3s2)c2c(N)ncnn2c1CN1CCNC(=O)C1.Cl.Cl [Example 2, 4-{[4-Amino-6-(methoxymethyl)-5-(7-methoxy-5-methyl-1-benzothiophen-2-yl)pyrrolo[2,1-f][1,2,4]triazin-7-yl]methyl}piperazin-2-one dihydrochloride]",7.2

# Same assay, conditions: read-out: mTOR % inhibition @ 1 μM, mean inhibition at 1 μM test compound, 40 μM ATP
row,SMILES,inhibition at 1 µM [%]
1,"COc1cc(C)cc2cc(-c3c(CN4CCCC(O)C4)c(CN4CCNCC4)n4ncnc(N)c34)sc12 (racemic) [Example 40, rac-1-{[4-Amino-5-(7-methoxy-5-methyl-1-benzothiophen-2-yl)-7-(piperazin-1-ylmethyl)pyrrolo[2,1-f][1,2,4]triazin-6-yl]methyl}piperidin-3-ol trihydrochloride]",0.1
2,"COCc1c(-c2cc3cc(C)cc(OC)c3s2)c2c(N)ncnn2c1CN1CCNC(=O)C1 [Example 1, 4-{[4-Amino-6-(methoxymethyl)-5-(7-methoxy-5-methyl-1-benzothiophen-2-yl)pyrrolo[2,1-f]-[1,2,4]triazin-7-yl]methyl}piperazin-2-one]",8.7
3,"CCOCc1c(-c2cc3cc(C)cc(OC)c3s2)c2c(N)ncnn2c1CN1CCNC(=O)C1 [Example 5, 4-{[4-Amino-6-(ethoxymethyl)-5-(7-methoxy-5-methyl-1-benzothiophen-2-yl)pyrrolo[2,1-f][1,2,4]-triazin-7-yl]methyl}piperazin-2-one]",9.7
4,"CCOCc1c(-c2cc3cc(C)cc(OC)c3s2)c2c(N)ncnn2c1CN1CCNC(=O)C1 [Example 6, 4-{[4-Amino-6-(ethoxymethyl)-5-(7-methoxy-5-methyl-1-benzothiophen-2-yl)pyrrolo[2,1-f][1,2,4]-triazin-7-yl]methyl}piperazin-2-one dihydrochloride]",0.3
5,"CCOCc1c(-c2cc3cc(C)cc(OC)c3s2)c2c(N)ncnn2c1CN[C@@H]1CCNC1=O [Example 7, (3R)-3-({[4-Amino-6-(ethoxymethyl)-5-(7-methoxy-5-methyl-1-benzothiophen-2-yl)pyrrolo[2,1-f]-[1,2,4]triazin-7-yl]methyl}amino)pyrrolidin-2-one dihydrochloride]",3.1
6,"CCOCc1c(-c2cc3cc(C)cc(OC)c3s2)c2c(N)ncnn2c1CN[C@@H]1CCNC1=O [Example 8, (3R)-3-({[4-Amino-6-(ethoxymethyl)-5-(7-methoxy-5-methyl-1-benzothiophen-2-yl)pyrrolo[2,1-f]-[1,2,4]triazin-7-yl]methyl}amino)pyrrolidin-2-one]",7.8
7,"CCOCc1c(-c2cc3cc(C)cc(OC)c3s2)c2c(N)ncnn2c1CN1CCOCC1 [Example 10, 6-(Ethoxymethyl)-5-(7-methoxy-5-methyl-1-benzothiophen-2-yl)-7-(morpholin-4-ylmethyl)pyrrolo[2,1-f][1,2,4]triazin-4-amine]",6
8,"COc1cc(C)cc2cc(-c3c(CO)c(CN4CCNCC4)n4ncnc(N)c34)sc12 [Example 12, [4-Amino-5-(7-methoxy-5-methyl-1-benzothiophen-2-yl)-7-(piperazin-1-ylmethyl)pyrrolo[2,1-f]-[1,2,4]triazin-6-yl]methanol bis(formiate)]",25.8
9,"COCc1c(-c2cc3cc(C)cc(OC)c3s2)c2c(N)ncnn2c1CN1CCNCC1 [Example 17, 6-(Methoxymethyl)-5-(7-methoxy-5-methyl-1-benzothiophen-2-yl)-7-(piperazin-1-ylmethyl)pyrrolo[2,1-f][1,2,4]triazin-4-amine formiate]",6.7
10,"CCOCc1c(-c2cc3cc(C)cc(OC)c3s2)c2c(N)ncnn2c1CN1CCNCC1 [Example 19, 6-(Ethoxymethyl)-5-(7-methoxy-5-methyl-1-benzothiophen-2-yl)-7-(piperazin-1-ylmethyl)pyrrolo[2,1-f][1,2,4]triazin-4-amine dihydrochloride]",17.6
11,"CCOCc1c(-c2cc3cc(C)cc(OC)c3s2)c2c(N)ncnn2c1CN1CCN(C(C)=O)CC1 [Example 20, 1-(4-{[4-Amino-6-(ethoxymethyl)-5-(7-methoxy-5-methyl-1-benzothiophen-2-yl)pyrrolo[2,1-f]-[1,2,4]triazin-7-yl]methyl}piperazin-1-yl)ethanone]",31.3
12,"CCCCOCc1c(-c2cc3cc(C)cc(OC)c3s2)c2c(N)ncnn2c1CN1CCNCC1 [Example 23, 6-(Butoxymethyl)-5-(7-methoxy-5-methyl-1-benzothiophen-2-yl)-7-(piperazin-1-ylmethyl)pyrrolo[2,1-f][1,2,4]triazin-4-amine formiate]",11.6
13,"CCCOCc1c(-c2cc3cc(C)cc(OC)c3s2)c2c(N)ncnn2c1CN1CCNCC1 [Example 24, 5-(7-Methoxy-5-methyl-1-benzothiophen-2-yl)-7-(piperazin-1-ylmethyl)-6-(propoxymethyl)pyrrolo[2,1-f][1,2,4]triazin-4-amine bis(formiate)]",6.3
14,"COc1cc(C)cc2cc(-c3c(COCC4CC4)c(CN4CCNCC4)n4ncnc(N)c34)sc12 [Example 25, 6-[(Cyclopropylmethoxy)methyl]-5-(7-methoxy-5-methyl-1-benzothiophen-2-yl)-7-(piperazin-1-ylmethyl)pyrrolo[2,1-f][1,2,4]triazin-4-amine bis(formiate)]",3.5
15,"COc1cc(C)cc2cc(-c3c(COC(C)C)c(CN4CCNCC4)n4ncnc(N)c34)sc12 [Example 27, 6-(Isopropoxymethyl)-5-(7-methoxy-5-methyl-1-benzothiophen-2-yl)-7-(piperazin-1-ylmethyl)pyrrolo[2,1-f][1,2,4]triazin-4-amine formiate]",5.9
16,"COc1cc(C)cc2cc(-c3c(COCC(F)(F)F)c(CN4CCNCC4)n4ncnc(N)c34)sc12 [Example 29, 5-(7-Methoxy-5-methyl-1-benzothiophen-2-yl)-7-(piperazin-1-ylmethyl)-6-[(2,2,2-trifluoroethoxy)methyl]pyrrolo[2,1-f][1,2,4]triazin-4-amine formiate]",28.5
17,"COC(=O)COCc1c(-c2cc3cc(C)cc(OC)c3s2)c2c(N)ncnn2c1CN1CCNCC1 [Example 31, Methyl {[4-amino-5-(7-methoxy-5-methyl-1-benzothiophen-2-yl)-7-(piperazin-1-ylmethyl)pyrrolo[2,1-f][1,2,4]triazin-6-yl]methoxy}acetate]",16.3
18,"COc1cc(C)cc2cc(-c3c(COCC(=O)O)c(CN4CCNCC4)n4ncnc(N)c34)sc12 [Example 32, {[4-Amino-5-(7-methoxy-5-methyl-1-benzothiophen-2-yl)-7-(piperazin-1-ylmethyl)pyrrolo[2,1-f][1,2,4]triazin-6-yl]methoxy}acetic acid]",1.6
19,"COc1cc(C)cc2cc(-c3c(COCC(N)=O)c(CN4CCNCC4)n4ncnc(N)c34)sc12 [Example 33, 2-{[4-Amino-5-(7-methoxy-5-methyl-1-benzothiophen-2-yl)-7-(piperazin-1-ylmethyl)pyrrolo[2,1-f][1,2,4]triazin-6-yl]methoxy}acetamide]",0.9
20,"COc1cc(C)cc2cc(-c3c(COc4ccccc4)c(CN4CCNCC4)n4ncnc(N)c34)sc12 [Example 35, 5-(7-Methoxy-5-methyl-1-benzothiophen-2-yl)-6-(phenoxymethyl)-7-(piperazin-1-ylmethyl)pyrrolo[2,1-f][1,2,4]triazin-4-amine bis(formiate)]",1.4
